Data as given in the supplement of paper PMC8988213.
Counter-ions that a name gives are not always drawn.

Legend:
[1] = tested on: ID188 patient-derived PDAC 2D line (pre-FOLFIRINOX); assay: normalised area under dose-response curve (viability relative to DMSO, 7 doses up to 10 µM) (fraction (AUC)); higher = less sensitive (more viability retained); conditions: 72 h; top dose: 10 µM
Summary of the method: (§1)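 SelleckChem library compounds were tested for 72 h at seven concentrations (3-fold steps, highest 10 µM) on patient-derived 2D PDAC cells grown out from organoids. These cells had been robotically placed at 1,500–3,000 cells/well in 96-well plates and incubated overnight at 37°C with 5% CO2, and luminescence from CellTiter-Glo was recorded after 10 min. The GRmetrics R package gave the area under the dose-response curve from viability normalised to control wells.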

[2] = tested on: ID211 patient-derived PDAC 2D line (post-FOLFIRINOX); assay: as above; conditions: 72 h; top dose: 10 µM
Summary of the method: as §1

Structure (SMILES) | normalised area under dose-response curve [1] | normalised area under dose-response curve [2]
C[C@H]1CNC(=O)c2cnn3ccc(nc23)N[C@H](C)c2cc(F)ccc2O1 [TPX-0005] | 0.777 | 0.728
CCN(c1cc(-c2ccc(CN3CCOCC3)cc2)cc(C(=O)NCc2c(C)cc(C)[nH]c2=O)c1C)C1CCOCC1 [Tazemetostat (EPZ-6438)] | 0.863 | 0.716
CC(C)(CO)c1cc2cc(NC(=O)C3(c4ccc5c(c4)OC(F)(F)O5)CC3)c(F)cc2n1C[C@@H](O)CO [Tezacaftor(VX-661)] | 0.925 | 1.02
CCCCCCCCCCCCCC(=S)NCCCC[C@H](NC(=O)OCc1ccccc1)C(=O)Nc1ccccc1 [Thiomyristoyl] | 0.925 | 0.787
Cn1cncc1[C@@](N)(c1ccc(Cl)cc1)c1ccc2c(c1)c(-c1cccc(Cl)c1)cc(=O)n2C [Tipifarnib] | 0.913 | 0.832
CC[C@@]1(O)C(=O)OCc2c1cc1n(c2=O)Cc2cc3c(CN(C)C)c(O)ccc3nc2-1 [Topotecan HCl] | 0.523 | 0.464
Cc1cc(Nc2cc(N3CCN(C)CC3)nc(Sc3ccc(NC(=O)C4CC4)cc3)n2)n[nH]1 [Tozasertib (VX-680, MK-0457)] | 0.235 | 0.716
CC1=C(/C=C/C(C)=C/C=C/C(C)=C/C(=O)O)C(C)(C)CCC1 [Tretinoin] | 1.12 | 0.841
NS(=O)(=O)c1ccc(NC(=O)Nc2ccc(F)cc2)cc1 [U-104] | 0.94 | 0.976
COc1cc2nc(N3CCCC3)nc(NCCCCCN3CCCC3)c2cc1OC [UNC0379] | 0.943 | 0.829
O=C(c1cncc(Br)c1)N1CCC(N2CCCC2)CC1 [UNC669] | 0.922 | 0.946
O=C(c1ccc(C(=O)N2CCC(N3CCCC3)CC2)c(Nc2ccccc2)c1)N1CCC(N2CCCC2)CC1 [UNC1215] | 0.931 | 0.951
CCCc1cc(C)[nH]c(=O)c1CNC(=O)c1cc(-c2ccc(N3CCN(C(C)C)CC3)nc2)cc2c1cnn2C(C)C [UNC1999] | 0.932 | 0.786
CNCc1ccc(-c2cc(-c3nc(-c4ccc(S(=O)(=O)C(C)C)cc4)cnc3N)on2)cc1 [VE-822] | 0.693 | 0.888
C=CC(=O)N1CC/C(=C\c2ccc(F)c([N+](=O)[O-])c2)C(=O)/C(=C/c2ccc(F)c([N+](=O)[O-])c2)C1 [VLX1570] | 0.602 | 0.243
CC(C)(O)CNc1ncc(-c2ccnc(Nc3ccnc(Cl)c3)n2)c(CC2CC2)n1 [VPS34-IN1] | 0.949 | 0.824
Cc1cccc(-c2[nH]c(CNc3ccccc3F)nc2-c2ccc3ncnn3c2)n1 [Vactosertib (TEW-7197)] | 0.931 | 0.871
Clc1ccc(Nc2nnc(Cc3ccncc3)c3ccccc23)cc1 [Vatalanib (PTK787) 2HCl] | 0.926 | 0.894
C[C@]1(c2nc3c(C(N)=O)cccc3[nH]2)CCCN1 [Veliparib (ABT-888)] | 0.913 | 0.923
CCCS(=O)(=O)Nc1ccc(F)c(C(=O)c2c[nH]c3ncc(-c4ccc(Cl)cc4)cc23)c1F [Vemurafenib (PLX4032, RG7204)] | 0.813 | 0.883

Structure (SMILES) | normalised area under dose-response curve [1] | normalised area under dose-response curve [2]
CC1(C)CCC(CN2CCN(c3ccc(C(=O)NS(=O)(=O)c4ccc(NCC5CCOCC5)c([N+](=O)[O-])c4)c(Oc4cnc5[nH]ccc5c4)c3)CC2)=C(c2ccc(Cl)cc2)C1 [Venetoclax (ABT-199, GDC-0199)] | 0.928 | 0.887
CC[C@]1(O)C[C@H]2CN(CCc3c([nH]c4ccccc34)[C@@](C(=O)OC)(c3cc4c(cc3OC)N(C=O)[C@H]3[C@@](O)(C(=O)OC)[C@H](OC(C)=O)[C@]5(CC)C=CCN6CC[C@]43[C@@H]65)C2)C1 [Vincristine sulfate] | 0.558 | 0.441
CCC1=C[C@@H]2CN(C1)Cc1c([nH]c3ccccc13)[C@@](C(=O)OC)(c1cc3c(cc1OC)N(C)[C@H]1[C@@](O)(C(=O)OC)[C@H](OC(C)=O)[C@]4(CC)C=CCN5CC[C@]31[C@@H]54)C2 [Vinorelbine Tartrate] | 0.546 | 0.338
CS(=O)(=O)c1ccc(C(=O)Nc2ccc(Cl)c(-c3ccccn3)c2)c(Cl)c1 [Vismodegib (GDC-0449)] | 0.926 | 0.84
CNC(=O)c1cccc(-c2ccc3c(N4CCOC[C@@H]4C)nc(N4CCOC[C@@H]4C)nc3n2)c1 [Vistusertib (AZD2014)] | 0.723 | 0.765
CC[C@@H]1C(=O)N(C)c2cnc(Nc3ccc(C(=O)N[C@H]4CC[C@H](N5CCN(CC6CC6)CC5)CC4)cc3OC)nc2N1C(C)C [Volasertib (BI 6727)] | 0.701 | 0.707
COc1ccc(N(C(=O)Oc2c(C)cccc2C)c2ccnc(Nc3ccc(N4CCN(C)CC4)cc3)n2)c(OC)c1 [WH-4-023] | 0.929 | 0.935
COc1ccc(-n2c(SCCCN3C(=O)c4cccc5cccc(c45)C3=O)nnc2-c2ccncc2)cc1 [WIKI4] | 0.837 | 0.85
CCC(=O)Nc1cccc(Oc2nc(Nc3ccc(N4CCN(C)CC4)cc3OC)ncc2Cl)c1 [WZ4003] | 0.965 | 0.896
Oc1nc(-c2ccc(C(F)(F)F)cc2)nc2c1CSCC2 [XAV-939] | 0.89 | 0.928
CN1c2ccccc2C(=O)Nc2cnc(Nc3ccc(N4CCC(O)CC4)cc3)nc21 [XMD16-5] | 0.906 | 0.783
COc1cc(O)c(CC=C(C)C)c(O)c1C(=O)/C=C/c1ccc(O)cc1 [Xanthohumol] | 0.943 | 0.926
COCC[n+]1c2c(n(Cc3cnccn3)c1C)C(=O)c1ccccc1C2=O [YM155 (Sepantronium Bromide)] | 0.0409 | 0.279
Cc1cc(C)nc(NS(=O)(=O)c2ccc(NC(=S)NC(=O)COc3ccc(Br)cc3Cl)cc2)n1 [ZCL278] | 0.928 | 0.777
FC(F)c1nc2ccccc2n1-c1nc(N2CCOCC2)nc(N2CCOCC2)n1 [ZSTK474] | 0.712 | 0.642
COc1nc(C)cnc1NS(=O)(=O)c1cccnc1-c1ccc(-c2nnco2)cc1 [Zibotentan (ZD4054)] | 0.96 | 0.955
CC(c1cc2ccccc2s1)N(O)C(N)=O (stereo not drawn) [Zileuton] | 0.817 | 0.859
C=CC(=O)N1C/C(=C\c2ccc([N+](=O)[O-])cc2)C(=O)/C(=C/c2ccc([N+](=O)[O-])cc2)C1 [b-AP15] | 0.504 | 0.671
Cc1cc(Nc2cc(N)ncn2)c(=O)n2c1C(=O)NC21CCCCC1 [eFT-508 (eFT508)] | 0.977 | 1.01
